Structures can show the parent of a compound that is named as a salt.
Columns and labels:
[1] = target: T1, FAAH (Homo sapiens, UniProt O00519); test: Assay Method 1: FAAH assay, 3H-anandamide hydrolysis in homogenate of T84 cells or SK-N-MC cells transfected with human FAAH; format: biochemical; details: average of results, > = solubility limit or highest concentration tested
T1 sequence (O00519 1-579): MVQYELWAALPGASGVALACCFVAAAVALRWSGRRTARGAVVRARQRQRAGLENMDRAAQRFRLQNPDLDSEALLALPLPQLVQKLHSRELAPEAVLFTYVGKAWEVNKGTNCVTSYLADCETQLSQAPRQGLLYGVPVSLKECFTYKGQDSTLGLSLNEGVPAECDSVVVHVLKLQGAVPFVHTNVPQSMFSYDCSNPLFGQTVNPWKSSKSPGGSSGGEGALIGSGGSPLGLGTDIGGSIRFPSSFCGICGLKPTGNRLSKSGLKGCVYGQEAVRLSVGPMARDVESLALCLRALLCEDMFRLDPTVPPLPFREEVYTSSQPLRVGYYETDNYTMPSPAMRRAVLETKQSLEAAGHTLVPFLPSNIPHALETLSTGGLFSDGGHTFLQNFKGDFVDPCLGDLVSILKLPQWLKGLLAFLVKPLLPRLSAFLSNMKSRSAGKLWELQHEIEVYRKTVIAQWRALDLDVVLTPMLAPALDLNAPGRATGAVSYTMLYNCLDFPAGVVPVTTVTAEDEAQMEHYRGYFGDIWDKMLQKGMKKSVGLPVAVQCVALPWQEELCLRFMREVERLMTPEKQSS
Method: A. Transfection of Cells with Human FAAH
(§1) A 10-cm tissue culture dish with a confluent monolayer of SK—N-MC cells was split 2 days (d) prior to transfection. Using sterile technique, the media was removed and the cells were detached from the dish by the addition of trypsin. One fifth of the cells were then placed onto a new 10-cm dish. Cells were grown in a 37° C. incubator with 5% CO2 in Minimal Essential Media Eagle with 10% Fetal Bovine Serum. After 2 d, cells were approximately 80% confluent. These cells were removed from the dish with trypsin and pelleted in a clinical centrifuge. The pellet was re-suspended in 400 μL complete media and transferred to an electroporation cuvette with a 0.4 cm gap between the electrodes. Supercoiled human FAAH cDNA (1 μg) was added to the cells and mixed. The voltage for the electroporation was set at 0.25 kV, and the capacitance was set at 960 μF. After electroporation, the cells were diluted into complete media (10 mL) and plated onto four 10-cm dishes. Because of the variability in the efficiency of electroporation, four different concentrations of cells were plated. The ratios used were 1:20, 1:10, and 1:5, with the remainder of the cells being added to the fourth dish. The cells were allowed to recover for 24 h before adding the selection media (complete media with 600 μg/mL G418). After 10 d, dishes were analyzed for surviving colonies of cells. Dishes with well-isolated colonies were used. Cells from individual colonies were isolated and tested.
(§2) T84 frozen cell pellets or transfected SK—N-MC cells (contents of 1×15 cm culture dishes) were homogenized in 50 mL of FAAH assay buffer (125 mM Tris, 1 mM EDTA, 0.2% Glycerol, 0.02% Triton X-100, 0.4 mM Hepes, pH 9). The assay mixture consisted of 50 μL of the cell homogenate, 10 μL of the test compound, and 40 μL of anandamide [1-^3H-ethanolamine] (^3H-AEA, Perkin-Elmer, 10.3 Ci/mmol), which was added last, for a final tracer concentration of 80 nM. The reaction mixture was incubated at rt for 1 h. During the incubation, 96-well Multiscreen filter plates (catalog number MAFCNOB50; Millipore, Bedford, Mass., USA) were loaded with 25 μL of activated charcoal (Multiscreen column loader, catalog number MACL09625, Millipore) and washed once with 100 μL of MeOH. Also during the incubation, 96-well DYNEX MicroLite plates (catalog number NL510410) were loaded with 100 μL of MicroScint40 (catalog number 6013641, Packard Bioscience, Meriden, Conn., USA). After the 1 h incubation, 60 μL of the reaction mixture were transferred to the charcoal plates, which were then assembled on top of the DYNEX plates using Centrifuge Alignment Frames (catalog number MACF09604, Millipore). The unbound labeled ethanolamine was centrifuged through to the bottom plate (5 min at 2000 rpm), which was preloaded with the scintillant, as described above. The plates were sealed and left at rt for 1 h before counting on a Hewlett Packard TopCount.
(§3) Compounds were tested in free base, hydrochloride salt, and/or trifluoroacetic acid salt forms.

[2] = target: T2, rat FAAH (Rattus norvegicus, UniProt P97612); test: Assay Method 2: FAAH assay, 3H-anandamide hydrolysis in homogenate of SK-N-MC cells transfected with rat FAAH; format: biochemical; details: average of results, > = solubility limit or highest concentration tested
T2 sequence (P97612 1-579): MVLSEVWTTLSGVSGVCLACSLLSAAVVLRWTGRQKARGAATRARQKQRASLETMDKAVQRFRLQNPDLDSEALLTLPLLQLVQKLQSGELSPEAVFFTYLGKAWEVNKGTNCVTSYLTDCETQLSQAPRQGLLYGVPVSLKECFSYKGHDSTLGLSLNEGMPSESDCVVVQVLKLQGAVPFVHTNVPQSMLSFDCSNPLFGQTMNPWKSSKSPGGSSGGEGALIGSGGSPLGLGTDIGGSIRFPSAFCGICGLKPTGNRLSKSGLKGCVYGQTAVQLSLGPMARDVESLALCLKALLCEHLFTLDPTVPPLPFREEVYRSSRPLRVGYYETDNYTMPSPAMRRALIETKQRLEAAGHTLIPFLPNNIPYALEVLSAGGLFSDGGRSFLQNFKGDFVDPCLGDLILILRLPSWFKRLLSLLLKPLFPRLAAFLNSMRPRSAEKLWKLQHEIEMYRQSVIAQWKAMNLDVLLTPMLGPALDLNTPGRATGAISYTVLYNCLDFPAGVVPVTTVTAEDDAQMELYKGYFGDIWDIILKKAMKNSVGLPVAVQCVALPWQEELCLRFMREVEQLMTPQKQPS
Method: A. Transfection of Cells with Rat FAAH
as §1, with “rat” for “human”
as §2, §3

Row | Compound | IC50 [1] | IC50 [2]
1 | O=C(Nc1noc2ccccc12)N1CCN(Cc2cccc(Oc3cccc(Br)c3)c2)CC1 [Example 31, 4-[3-(3-Bromo-phenoxy)-benzyl]-piperazine-1-carboxylic acid benzo[d]isoxazol-3-ylamide trifluoroacetic acid salt] | 22 nM | 17 nM
2 | O=C(Nc1noc2ccccc12)N1CCN(Cc2cccc(Oc3ccc(F)c(F)c3)c2)CC1 [Example 33, 4-[3-(3,4-Difluoro-phenoxy)-benzyl]-piperazine-1-carboxylic acid benzo[d]isoxazol-3-ylamide] | 52 nM | 30 nM
3 | O=C(Nc1noc2ccccc12)N1CCN(Cc2cccc(Oc3cc(F)cc(F)c3)c2)CC1 [Example 34, 4-[3-(3,5-Difluoro-phenoxy)-benzyl]-piperazine-1-carboxylic acid benzo[d]isoxazol-3-ylamide trifluoroacetic acid salt] | 152 nM | 190 nM
4 | O=C(Nc1cccc2nsnc12)N1CCN(Cc2cccc(Oc3ccc(Cl)c(Cl)c3)c2)CC1 [Example 38, 4-[3-(3,4-Dichloro-phenoxy)-benzyl]-piperazine-1-carboxylic acid benzo[1,2,5]thiadiazol-4-ylamide trifluoroacetic acid salt] | 70 nM | 9 nM
5 | O=C(Nc1cccc2nsnc12)N1CCN(Cc2cccc(OC(F)(F)F)c2)CC1 [Example 41, 4-(3-Trifluoromethoxy-benzyl)-piperazine-1-carboxylic acid benzo[1,2,5]thiadiazol-4-ylamide trifluoroacetic acid salt] | 48 nM | 141 nM
6 | O=C(Nc1ccc(Cl)nn1)N1CCN(Cc2cccc(Oc3ccc(Cl)cc3)c2)CC1 [Example 42, 4-[3-(4-Chloro-phenoxy)-benzyl]-piperazine-1-carboxylic acid (6-chloro-pyridazin-3-yl)-amide trifluoroacetic acid salt] | 311 nM | 18 nM
7 | O=C(Nc1ccc(Cl)nn1)N1CCN(Cc2cccc(Oc3cccc(C(F)(F)F)c3)c2)CC1 [Example 44, 4-[3-(3-Trifluoromethyl-phenoxy)-benzyl]-piperazine-1-carboxylic acid (6-chloro-pyridazin-3-yl)-amide trifluoroacetic acid salt] | 643 nM | 46 nM

Further molecules by falling IC50 [1], results first:

Row | IC50 [1] | IC50 [2] | Compound
8 | 1500 nM | 410 nM | O=C(Nc1ccc(Cl)nn1)N1CCN(Cc2ccc(F)c(Oc3ccccc3)c2)CC1 [Example 45, 4-(4-Fluoro-3-phenoxy-benzyl)-piperazine-1-carboxylic acid (6-chloro-pyridazin-3-yl)-amide trifluoroacetic acid salt]
9 | 983 nM | 6 nM | O=C(Nc1ccc(Cl)nn1)N1CCN(Cc2cccc(Oc3ccc(Cl)c(Cl)c3)c2)CC1 [Example 43, 4-[3-(3,4-Dichloro-phenoxy)-benzyl]-piperazine-1-carboxylic acid (6-chloro-pyridazin-3-yl)-amide trifluoroacetic acid salt]
10 | 310 nM | 573 nM | O=C(Nc1cccc2nsnc12)N1CCN(Cc2cccc(Oc3cc(Cl)cc(Cl)c3)c2)CC1 [Example 39, 4-[3-(3,5-Dichloro-phenoxy)-benzyl]-piperazine-1-carboxylic acid benzo[1,2,5]thiadiazol-4-ylamide trifluoroacetic acid salt]
11 | 156 nM | 15 nM | O=C(Nc1cccc2nsnc12)N1CCN(Cc2cccc(Oc3cccc(C(F)(F)F)c3)c2)CC1 [Example 40, 4-[3-(3-Trifluoromethyl-phenoxy)-benzyl]-piperazine-1-carboxylic acid benzo[1,2,5]thiadiazol-4-ylamide trifluoroacetic acid salt]
12 | 95 nM | 17 nM | O=C(Nc1noc2ccccc12)N1CCN(Cc2cccc(Oc3ccc(F)c(C(F)(F)F)c3)c2)CC1 [Example 28, 4-[3-(4-Fluoro-3-trifluoromethyl-phenoxy)-benzyl]-piperazine-1-carboxylic acid benzo[d]isoxazol-3-ylamide trifluoroacetic acid salt]
13 | 16 nM | 23 nM | O=C(Nc1noc2ccccc12)N1CCN(Cc2cccc(Oc3cccc(OC(F)(F)F)c3)c2)CC1 [Example 29, 4-[3-(3-Trifluoromethoxy-phenoxy)-benzyl]-piperazine-1-carboxylic acid benzo[d]isoxazol-3-ylamide trifluoroacetic acid salt]
14 | 5 nM | 20 nM | O=C(Nc1noc2ccccc12)N1CCN(Cc2cccc(Oc3ccc(OCC(F)(F)F)cc3)c2)CC1 [Example 35, 4-{3-[4-(2,2,2-Trifluoro-ethoxy)-phenoxy]-benzyl}-piperazine-1-carboxylic acid benzo[d]isoxazol-3-ylamide]
15 | 3 nM | 4 nM | O=C(Nc1noc2ccccc12)N1CCN(Cc2cccc(Oc3ccc(Br)cc3)c2)CC1 [Example 32, 4-[3-(4-Bromo-phenoxy)-benzyl]-piperazine-1-carboxylic acid benzo[d]isoxazol-3-ylamide trifluoroacetic acid salt]
16 | 0.1 nM | 14 nM | O=C(Nc1noc2ccccc12)N1CCN(Cc2cccc(Oc3ccc(OC(F)(F)F)cc3)c2)CC1 [Example 30, 4-[3-(4-Trifluoromethoxy-phenoxy)-benzyl]-piperazine-1-carboxylic acid benzo[d]isoxazol-3-ylamide trifluoroacetic acid salt]

From US20090062294A1, “HETEROARYL-SUBSTITUTED UREA MODULATORS OF FATTY ACID AMIDE HYDROLASE” (priority 2007, published 2009)
